Test results taken from patent US11110171B2, “PD-1 related cancer therapy” (New York University, priority 2017, dated 2021).

Tests used:
[1] = test system: IL-2 secretion of human CD3+ T cells; test: IL-2 secretion (ELISA) of primary human CD3+ T cells stimulated with anti-CD3 or anti-CD3+PDL2 beads; format: cell-based; conditions: control or SAP KD siRNA, anti-CD3+PDL2 beads 24 hours
Method: FIG. 13. (a) Jurkat T cells were transfected with non-targeting siRNA control and siRNA to SAP, followed by immunoblot analysis. […] Media was harvested and IL-2 levels were measured (ELISA). * P<0.05, NS not significant, n=3, unpaired t test. (c) control vector or SAP-expressing vector for 48 hours and samples were analyzed for SAP expression by immunoblotting. (d) Cell expressing SAP were stimulated overnight and CD69 expression levels were recorded by FACS. (e) T cells from XLP patients and healthy controls were tested for PD-1 expression by FACS analysis. For FIG. 7b 13b, the bars from left to right for each set are: Control, CD3, and CD3+PDL2.
By contrast, overexpression of SAP-GFP (FIG. 13c and FIG. 5b) abrogated the ability of PD-1 to inhibit anti-CD3-induced IL-2 secretion (FIG. 5c), CD69 up regulation (FIG. 5d and FIG. 13d), IFN-γ release (FIG. 5e), and T cell adhesion to fibronectin-coated wells (FIG. 5f). Thus, SAP appears to be a negative regulator of PD-1 signaling and function in T cells.
Primary human T cells were isolated from whole blood using RosetteSep (Stemcell) followed by Ficoll-Paque, according to the manufacturer's instructions. The cells were maintained in enriched media (HEPES 25 mM, Sodium pyruvate 100 mM, Nonessential amino acid, and L-Glutamine) at 5% C02 and 37° C. […]

[2] = test system: phosphorylation of ERK, PLCγ and ZAP70 in Jurkat T cells; test: Immunoblot of PD-1 signaling in Jurkat T cells stimulated with anti-CD3 or anti-CD3+PDL2 beads; format: cell-based, human; conditions: SAP-deficient (SAP KD) Jurkat T cells, SHP099 10 uM for one hour, anti-CD3+PDL2 beads 5 minutes

With CC1(N)CCN(c2cnc(-c3cccc(Cl)c3Cl)c(N)n2)CC1.Cl [SHP099] the “PD-1's ability to inhibit IL-2 secretion” value [1] was “abrogation” and the “PD-1's ability to inhibit the phosphorylation of ERK, PLCγ and ZAP70” value [2] was “abrogated”.
